The text below walks through data of patent publication US6946277B2, “Method for enhancing cellobiase activity of termitomyces clypeatus using a glycosylation inhibitor” (Council of Scientific and Industrial Research, priority 2001, dated 2005).

The subject of assay [1] is Termitomyces clypeatus. The experiment in a line: Cellobiase activity of culture filtrate of Termitomyces clypeatus grown with glycosylation inhibitors (p-nitro phenyl β-D-glucoside substrate). As to conditions: for Maximum cellobiase activity: Termitomyces clypeatus in presence of 2-deoxyglucose. Format: cell-based. Here is the method: (§1) The fungus is maintained in agar slants containing (w/w) glucose 5%, potato extract 10%, malt extract 5%, KH2PO4 0.087%, MgSO4, 7H2O 0.05%. Cultivation of the fungus is carried out between temperatures 20-37° C., preferably at 28-30° C. and at pH between 3-8, preferably at 4-6, under aerobic condition in shake flask in liquid medium on a rotary shaker (200-300 strokes per minute). Among the assimilable carbon sources (cellobiose, mannose, fructose, xylose, arabinose, starch, dextrin, cellulose, cotton, xylan and agrowastes like baggasse powder, rice-straw powder, wheat bran, corn cob powder, corn powder; in presence of TCA cycle acids like succinate, fumarate, maleate or amino acids like aspartate, glutamate, serine, histidine and alanine or glucose analogues like D-glucosamine) D-cellobiose with succinate served as one of the best carbon sources in the concentration range of 0.5-2%(w/v). Among the assimilable nitrogen sources (ammonium chloride, ammonium nitrate, ammonium di hydrogen phosphate, potassium nitrate and organic nitrogen sources such as malt extract, yeast extract, potato extract, soya-peptone and bactopeptone) ammonium di hydrogen phosphate was used. Among the glycosylation inhibitors (Tunicamycin, deoxynojirimycin, 2-deoxy-D-glucose and D-glucono-lactone) 2-deoxy glucose was preferred (Table 1). Detergents used were Tween 20, Tween-80, or Tween-100. Initial pH of the medium may be maintained at 3-7, preferably at 4.5. Inoculum is prepared in the medium in polypropylene conical flask with sterile glass balls (1-1.5 cm in diameter) 3-4 numbers in 250-ml flask. The fine mycelia grown in liquid medium after 2-4 days of growth were added to the fermentation medium at the ratio of 1:10 (v/v). Optimum production of enzyme took place after 3 days of inoculation, between 4-6th days. The culture filtrate is freed from mycelia by any known method of filtration. Cellobiase activity of the culture medium was assayed using p-nitro phenyl β-D-glucoside as substrate. Reference may be made to Khowala. S. And Sengupta. S. (1992) Enzyme and microbial Technology, volume 14, pages144-149. One unit of activity was taken as the amount of enzyme, which could liberate one micromole of p-nitro phenol from p-nitro phenyl β-D-glucoside in the reaction mixture incubated at 50° C. for 30 minutes (Table 1 and 2). Endo-glucanase and cellobiohydrolase activities were measured by dinitrosalicylic acid reagent using carboxy methylcellulose (Sigma chemical co.) and crystalline cellulose (Sigma chemical co.) respectively as substrate (Table 2). Reference may be made to Sumner J. B. and Sumner G. (1949) in Laboratory Experiments in Chemistry, Academic press, New York, page 38. One unit of enzyme was considered as the amount of enzyme that could liberate one micromole of glucose equivalent per minute in buffer at pH 5.0 at 50° C.
[…] The 250 ml conical flask containing 50 ml of medium were autoclaved for 20 minutes at 15 pounds per square inch pressure, where separately autoclaved ammonium di hydrogen orthophosphate at the concentration of 2.4% w/w was added to the medium after sterilization. The medium was cooled and was inoculated at the rate of 10% mycelia (blended) of the fungus developed earlier in flasks with glass marbles. The culture was grown in the medium for 4 days at temperatures 28°-32° C. on a rotary-shaker. The culture filtrate was freed from mycelia and the clear supernatant was used as a source of enzymes. Cellobiase activity was 90 units per ml, endo-glucanase was 4.5 units per ml, and cellobiohydrolase was 3.5 units per ml, respectively. Cellobiase activity in absence of 2-deoxy-D-glucose in the control medium was 1.44 units per ml.
The fungus Termitomyces clypeatus IICB-411 was grown in a medium containing (w/w, %): Cellobiose 1, 2-deoxy-D-glucose 0.5, mannose 0.5, sodium succinate 0.5, KH2PO4 0.087, MgSO4, 7H2O 0.05 at pH 4.5. […]

Another assay concerns Trichoderma reesei. The following applies: cited from earlier work.
In another assay the test system is Dichomitus squalenes. The experiment in a line: Cellobiase activity of Dichomitus squalenes in a similar medium. As to conditions: Dichomitus squalenes in presence of 2-deoxyglucose. It is filed as cell-based.
In the next assay the test system is T. clypeatus. Description: Growth of the fungus T. clypeatus in presence of 2-deoxy-D-glucose. It is filed as cell-based, Termitomyces clypeatus. As to conditions: at higher concentrations (above 0.05 to 5% w/v). From the text:
The inventive step is the addition of 2-deoxy-D-glucose in the growth medium in presence of assimilable carbon and nitrogen sources and other nutrients. 2-deoxy-D-glucose is non-fermentable analogue of glucose and mannose, and is known to interfere in formation of wall polysaccharides in yeast [Reference may be made to European Journal of Biochemistry (1975), Volume 54, pages 459-467] and to increase protein secretion in Trichoderma reesei [Reference may be made to Journal of General Microbiology (1989) Volume 135, pages 301-307]; but it acts as a glycosylation inhibitor, increases synthesis and secretion of extracellular proteins in Termitomyces clypeatus, when used in the concentration range of 0.05 to 5%(w/v) and high cellobiase activity is produced in presence of cellobiose, as determined in the applicants laboratory.

Assay [2] relates to Termitomyces clypeatus. Description: Endo-glucanase activity of culture filtrate (carboxy methylcellulose, dinitrosalicylic acid reagent). Format: cell-based. The following applies: for endo-glucanase: 4 days, pH 4.5. How it is done:
as §1
(§2) The fungus Termitomyces clypeatus IICB-411 was grown in a medium containing (w/w, %): Cellobiose 1, 2-deoxy-D-glucose 0.30, sodium succinate 0.5, KH2PO4 0.087, MgSO4, 7H2O 0.05 at pH 4.5. The 250 ml conical flask containing 50 ml of medium were autoclaved for 20 minutes at 15 pounds per square inch pressure, where separately autoclaved ammonium di hydrogen orthophosphate at the concentration of 2.4% w/w was added to the medium after sterilization. The medium was cooled and was inoculated at the rate of 10% mycelia (blended) of the fungus developed earlier in flasks with glass marbles. The culture was grown in the medium for 4 days at temperatures 28°-32° C. on a rotary-shaker. The culture filtrate was freed from mycelia and the clear supernatant was used as a source of enzymes. Cellobiase activity was 90 units per ml, endo-glucanase was 4.5 units per ml, and cellobiohydrolase was 3.5 units per ml, respectively. Cellobiase activity in absence of 2-deoxy-D-glucose in the control medium was 1.44 units per ml. […]

The subject of assay [3] is Termitomyces clypeatus. The experiment in a line: Cellobiohydrolase activity of culture filtrate (crystalline cellulose, dinitrosalicylic acid reagent). Format: cell-based. As to conditions: for cellobiohydrolase: 4 days, pH 4.5. How it is done:
as §1, §2

Setting [4] is: Control medium + 2-deoxy-D-glucose 300 μg/ml (Example 2), Table 2.
Setting [5] is: Control medium + 2-deoxy-D-glucose 1 mg/ml + Mannose 500 μg/ml.
The mark [6] stands for this setting: Control medium + 2-deoxyglucose 1 mg/ml (Example 1), Table 2.
[7] abbreviates: Example 1: 2-deoxy-D-glucose 0.30 % w/w.
The mark [8] stands for this setting: Example 2: 2-deoxy-D-glucose 0.5 % + mannose 0.5 % w/w.
Where [9] appears, read: Example 3: 2-deoxy-D-glucose 1 % w/w.

Regarding `OC[C@H]1NC[C@H](O)[C@@H](O)[C@@H]1O` [1-deoxynojirimycin], in the assay with Termitomyces clypeatus [1] (Control + 1-deoxynojirimycin 80 μM), the Cellobiase activity stood at 1.4085 units/ml.

Regarding `O=CC[C@@H](O)[C@H](O)[C@H](O)CO` [2-deoxy-D-glucose], in the assay on Trichoderma reesei (2-deoxy-D-glucose 0-150 μg/ml), the “biosynthesis of extracellular as well as intracellular protein” value is “inhibited”. Moreover, the Cellobiase activity turned out to be 2.236 units/ml in the assay with Termitomyces clypeatus [1] (Control + 2-deoxy-D-glucose 0.05 mg/ml); 50.097 units/ml with Termitomyces clypeatus [1] (Control + 2-deoxy-D-glucose 1 mg/ml); 0.081 units/ml with Termitomyces clypeatus [1] (Control + 2-deoxy-D-glucose 5 mg/ml); 90.020 units/ml in the assay on Termitomyces clypeatus [1] (setting [4]); 140.60 units/ml in the assay on Termitomyces clypeatus [1] (setting [5]); 50.097 units/ml with Termitomyces clypeatus [1] (setting [6]). Besides, the Cellobiase activity in the assay with Termitomyces clypeatus [1] (Example 1: 2-deoxy-D-glucose 0.30 % w/w, 4 days, pH 4.5) is recorded as 90 units per ml; with Termitomyces clypeatus [1] (Example 2: 2-deoxy-D-glucose 0.5 % + mannose 0.5 % w/w, 4 days, pH 4.5), 140 units per ml; in the assay on Termitomyces clypeatus [1] (Example 3: 2-deoxy-D-glucose 1 % w/w, 4 days, pH 4.5) it was 50 units per ml. In addition, the Maximum cellobiase activity in the assay on Termitomyces clypeatus [1] (Example-1) is recorded as 90.0 U/ml; with Termitomyces clypeatus [1] (Example-2), 140.0 U/ml; in the assay on Termitomyces clypeatus [1] (Example-3), 50.0 U/ml; with Dichomitus squalenes, 0.05^C U/ml. Besides, the “enhanced production and secretion of enzyme” value with Termitomyces clypeatus [1] (at lower concentrations) is reported as “the effect is not observed”. In addition, in the assay on T. clypeatus, the “growth of the fungus” value is listed as “inhibit growth”. The Endo-glucanase activity is 4.637 units/ml in the assay on Termitomyces clypeatus [2] (setting [4]), 1.086 units/ml in the assay on Termitomyces clypeatus [2] (setting [5]) and 4.112 units/ml in the assay on Termitomyces clypeatus [2] (setting [6]). The endo-glucanase with Termitomyces clypeatus [2] (setting [7]) stood at 4.5 units per ml; in the assay on Termitomyces clypeatus [2] (setting [8]), 6 units per ml; with Termitomyces clypeatus [2] (setting [9]), 4 units per ml. Further, the Cellobiohydrolase activity with Termitomyces clypeatus [3] (setting [4]) is recorded as 3.600 units/ml; in the assay with Termitomyces clypeatus [3] (setting [5]) it was 4.873 units/ml; with Termitomyces clypeatus [3] (setting [6]) it was 3.546 units/ml. Besides, the cellobiohydrolase with Termitomyces clypeatus [3] (setting [7]), in the assay with Termitomyces clypeatus [3] (setting [8]) and in the assay on Termitomyces clypeatus [3] (setting [9]) was 3.5 units per ml each time.

For the compound `O=C1O[C@H](CO)[C@@H](O)[C@H](O)[C@H]1O` [glucono-lactone, D-glucono-lactone], the Cellobiase activity with Termitomyces clypeatus [1] (Control + glucono-lactone 2 mg/ml) amounted to 6.1820 units/ml.

Consider Tunicamycin, for which, in the assay on Trichoderma reesei (Tunicamycin 0-50 μg/ml), the “effect on secretion of proteins” value is given as “no effect”. The Cellobiase activity in the assay with Termitomyces clypeatus [1] (Control + Tunicamycin 10 μg/ml) turned out to be 1.2075 units/ml.
